This note sets out measurements from patent US20250345309A1, “IMMUNE HEALTH IMPROVERS” (Amazentis SA, priority 2024, published 2025).

The test concerns T cells. The test can be described thus: T cell stimulation assay (αCD3/αCD28 beads, four days). Format: in vivo, human. The note with it: PBMCs ex vivo. As to the method: To study the antigen response of T cells, 0.5×10^6 thawed PBMCs were pre-stained with CellTrace Violet (C34557 ThermoFisher Scientific) according to the manufacturer's instructions. After washing, they were plated in a 24 well plate for 24 h to deplete monocyte populations by plastic adherence. Next, cells in suspension were transferred to a new tube and centrifuged at 350 g for 5 min, followed by reconstitution in fresh T cell medium. Cells were stimulated with human αCD3/C28 stimulation beads (Dynabeads, ThermoFirsher) for four days, using a ratio of 25 μl Beads per 0.5×10^6 cells. Following the stimulation period, magnetic beads were discarded via magnetic separation and cells were stained with PE-Cy7 CD4, APC-Cy7CD8, CD45RA FITC, CCR7 AF700 and live/dead ef780. To study cytokine expression, Brefeldin A (Biolegend) was added to stimulated PBMCs for the last 3 hours. Cells were then washed and stained using the panel above, while intracellular staining for cytokine assessment was performed with BD Cytofix/Cytoperm (BD) with 20 min fixation and overnight incubation with αIL-4-CF594, αIFNγ-PE (XMG1.2; 45-7311-82; eBioscience) and αTNFa-APC (MP6-XT22; 563944; BD). Finally, samples were fixed with 1% PFA until data acquisition. To functionally characterize the human immune system after systemic UA supplementation further, proliferative capacity and cytokine secretion of T cells was assessed. PBMCs from both intervention groups were incubated in the presence of αCD3/αCD28 stimulation beads for a total of four days (FIG. 10A).

As for `O=c1oc2cc(O)ccc2c2ccc(O)cc12` [Urolithin A], the “CD8+ TCM/TEM phenotype distribution after CD3 receptor engagement” value is on record as “no treatment-specific distribution pattern”. Moreover, under “UA vs placebo, baseline vs d28”, the T cell proliferation result was “no difference”. The “CD8+ expression of IFN-γ when stimulated” value (baseline vs d28) was “remained unchanged”. Under “baseline vs d28, no change with placebo”, the “IL-4 production of antigen challenged CD8+ cells” value is “reduced”.
